Holding throughout (format): functional
Conditions in all cases: route intraperitoneal

Assay [1] concerns Mus musculus. In words: Hypoglycemic activity in normal ddY mouse at 5 mg/kg, ip assessed as blood glucose level per 100 mL blood after 4 hrs.
Assay [2] relates to Mus musculus. In words: Hypoglycemic activity in normal ddY mouse at 5 mg/kg, ip assessed as blood glucose level per 100 mL blood after 7 hrs.
Assay [3] deals with Mus musculus. The assay can be described thus: Hypoglycemic activity in diabetic KK-Ay mouse at 5 mg/kg, ip assessed as blood glucose level per 100 mL blood after 4 hrs.
For assay [4], the system named is Mus musculus. The assay can be described thus: Hypoglycemic activity in diabetic KK-Ay mouse at 5 mg/kg, ip assessed as blood glucose level per 100 mL blood after 7 hrs.
For assay [5], the system named is Mus musculus. In words: Hypoglycemic activity in normal ddY mouse at 1 mg/kg, ip assessed as blood glucose level per 100 mL blood after 4 hrs.
Assay [6] has as its system Mus musculus. The assay can be described thus: Hypoglycemic activity in normal ddY mouse at 1 mg/kg, ip assessed as blood glucose level per 100 mL blood after 7 hrs.
The subject of assay [7] is Mus musculus. The assay can be described thus: Hypoglycemic activity in diabetic KK-Ay mouse at 1 mg/kg, ip assessed as blood glucose level per 100 mL blood after 4 hrs.
For assay [8], the system named is Mus musculus. In words: Hypoglycemic activity in diabetic KK-Ay mouse at 1 mg/kg, ip assessed as blood glucose level per 100 mL blood after 7 hrs.
Assay [9] has as its system Mus musculus. In words: Hypoglycemic activity in normal ddY mouse at 50 mg/kg, ip assessed as blood glucose level per 100 mL blood after 4 hrs.
The subject of assay [10] is Mus musculus. In words: Hypoglycemic activity in normal ddY mouse at 50 mg/kg, ip assessed as blood glucose level per 100 mL blood after 7 hrs.
Assay [11] concerns Mus musculus. The assay can be described thus: Hypoglycemic activity in diabetic KK-Ay mouse at 50 mg/kg, ip assessed as blood glucose level per 100 mL blood after 4 hrs.
The subject of assay [12] is Mus musculus. In words: Hypoglycemic activity in diabetic KK-Ay mouse at 50 mg/kg, ip assessed as blood glucose level per 100 mL blood after 7 hrs.

These results are taken from ChEMBL document CHEMBL1145691, “Hypoglycemic activity of some triterpenoid glycosides” (1997).

Turning to `COc1cc(/C=C/C(=O)OC[C@@]2(O[C@H]3O[C@H](COC(C)=O)[C@@H](OC(=O)/C=C/c4ccc(O)c(OC)c4)[C@H](O[C@@H]4O[C@H](COC(C)=O)[C@@H](O[C@@H]5O[C@H](CO)[C@@H](O)[C@H](O)[C@H]5O)[C@H](O)[C@H]4O)[C@H]3O[C@@H]3O[C@H](CO)[C@@H](O)[C@H](O)[C@H]3O)O[C@H](CO)[C@@H](O)[C@@H]2OC(=O)c2ccccc2)ccc1O` [SENEGOSE A], the Activity in the assay on Mus musculus [1] turned out to be 197 mg/dL; in the assay with Mus musculus [2], 199 mg/dL; in the assay with Mus musculus [3], 401 mg/dL; in the assay on Mus musculus [4], 368 mg/dL.

In the case of `COc1ccc(/C=C/C(=O)O[C@@H]2[C@H](O[C@@H]3O[C@@H](C)[C@H](O)[C@@H](O)[C@H]3O)[C@@H](O[C@@H]3O[C@@H](C)[C@H](O[C@@H]4OC[C@@H](O[C@@H]5O[C@H](CO)[C@H](O)[C@H](O)[C@H]5O)[C@H](O)[C@H]4O)[C@@H](O)[C@H]3O)[C@H](OC(=O)[C@]34CCC(C)(C)C[C@@H]3C3=CC[C@@H]5[C@@]6(C)C[C@H](O[C@@H]7O[C@H](CO)[C@@H](O)[C@H](O)[C@H]7O)[C@H](O)[C@@](C)(C(=O)O)[C@@H]6CC[C@@]5(C)[C@]3(CO)CC4)O[C@@H]2C)cc1` [SENEGIN III], the Activity in the assay with Mus musculus [5] came out at 167 mg; with Mus musculus [6], 172 mg; in the assay with Mus musculus [1], 151 mg/dL; in the assay with Mus musculus [2], 160 mg/dL; with Mus musculus [7] it was 195 mg; with Mus musculus [8], 210 mg. The Activity is 204 mg/dL in the assay with Mus musculus [3] and 146 mg/dL with Mus musculus [4].

On to `COc1ccc(/C=C/C(=O)O[C@@H]2[C@H](O[C@@H]3O[C@@H](C)[C@H](O)[C@@H](O)[C@H]3O)[C@@H](O[C@@H]3O[C@@H](C)[C@H](O[C@@H]4OC[C@@H](O[C@@H]5O[C@H](CO)[C@H](O)[C@H](O)[C@H]5O)[C@H](O)[C@H]4O)[C@@H](O[C@H]4OC[C@](O)(CO)[C@H]4O)[C@H]3O)[C@H](OC(=O)[C@]34CCC(C)(C)C[C@@H]3C3=CC[C@@H]5[C@@]6(C)C[C@H](O[C@@H]7O[C@H](CO)[C@@H](O)[C@H](O)[C@H]7O)[C@H](O)[C@@](C)(C(=O)O)[C@@H]6CC[C@@]5(C)[C@]3(CO)CC4)O[C@@H]2C)cc1` [SENEGIN IV], for which the Activity is 177 mg in the assay on Mus musculus [5]; 171 mg with Mus musculus [6]; 187 mg/dL in the assay with Mus musculus [1]; 169 mg/dL with Mus musculus [2]; 207 mg in the assay on Mus musculus [7]; 276 mg in the assay on Mus musculus [8]. The Activity with Mus musculus [3] is on record as 276 mg/dL; with Mus musculus [4], 388 mg/dL.

Turning to `COc1ccc(/C=C/C(=O)O[C@@H]2[C@H](O)[C@@H](O[C@@H]3O[C@@H](C)[C@H](O[C@@H]4OC[C@@H](O[C@@H]5O[C@H](CO)[C@H](O)[C@H](O)[C@H]5O)[C@H](O)[C@H]4O)[C@@H](O)[C@H]3O)[C@H](OC(=O)[C@]34CCC(C)(C)C[C@@H]3C3=CC[C@@H]5[C@@]6(C)C[C@H](O[C@@H]7O[C@H](CO)[C@@H](O)[C@H](O)[C@H]7O)[C@H](O)[C@@](C)(C(=O)O)[C@@H]6CC[C@@]5(C)[C@]3(CO)CC4)O[C@@H]2C)cc1` [DESMETHOXYSENEGIN II], the Activity with Mus musculus [1] is 199 mg/dL; with Mus musculus [2] it was 195 mg/dL; in the assay with Mus musculus [3], 306 mg/dL; in the assay on Mus musculus [4], 325 mg/dL.

For `CCCCNC(=O)NS(=O)(=O)c1ccc(C)cc1` [TOLBUTAMIDE], the Activity is given as 160 mg with Mus musculus [9], 170 mg with Mus musculus [10], 495 mg in the assay with Mus musculus [11] and 370 mg with Mus musculus [12].

For `COc1ccc(/C=C/C(=O)O[C@@H]2[C@H](O)[C@@H](O[C@@H]3O[C@@H](C)[C@H](O[C@@H]4OC[C@@H](O[C@@H]5O[C@H](CO)[C@H](O)[C@H](O)[C@H]5O)[C@H](O)[C@H]4O)[C@@H](O)[C@H]3O)[C@H](OC(=O)[C@]34CCC(C)(C)C[C@@H]3C3=CCC5[C@@]6(C)C[C@H](O[C@@H]7O[C@H](CO)[C@@H](O)[C@H](O)[C@H]7O)[C@H](O)[C@@](C)(C(=O)O)[C@@H]6CC[C@@]5(C)[C@]3(CO)CC4)O[C@@H]2C)cc1OC` (stereo partly specified) [SENEGIN II], the Activity in the assay on Mus musculus [5] stood at 139 mg; in the assay on Mus musculus [6], 149 mg; with Mus musculus [1], 137 mg/dL; in the assay with Mus musculus [2] it was 140 mg/dL; with Mus musculus [7], 226 mg; in the assay with Mus musculus [8], 305 mg. In addition, the values for the Activity in the assay with Mus musculus [3] and with Mus musculus [4] were 217 mg/dL and 182 mg/dL, respectively.
